According to patent US20100093541A1, “HERBICIDE COMBINATION COMPRISING DIMETHOXYTRIAZINYL SUBSTITUTED DIFLUOROMETHANESULFONYLANILIDES” (BAYER CROPSCIENCE AG, priority 2008, published 2010):

How the values were obtained:
Format in all cases: in vivo
[1] = system: Cyperus esculentus (CYPES); experiment: Post-emergence action against weeds, greenhouse pot test, visual scoring
Method: (§1) Seeds or rhizome pieces of mono- and dicotyledonous harmful and useful plants were placed in peat pots (diameter 4 cm) filled with sandy loam and then covered with soil. The pots were kept in a greenhouse under optimum conditions. In addition, harmful plants encountered in paddy rice cultivation were cultivated in pots with a water level 2 cm above the soil surface.
(§2) About three weeks after the start of the cultivation, the test plants were treated at the 2- to 3-leaf stage. The herbicides, formulated as powder or liquid concentrates, were, either alone or in the combinations according to the invention, sprayed in various dosages on to the green parts of the plants using an application rate of 600 l of water/ha (converted). For further cultivation of the plants, the pots were then again kept under optimum conditions in a greenhouse.
(§3) The visual scoring of the herbicidal effects was carried out in intervals up to 21 days after the treatment. Scoring was carried out in percent in comparison to the untreated control plants. 0%=no herbicidal activity, 100%=complete herbicidal activity=complete kill.
(§4) The percentages from the treatments with the herbicides alone (=individual application) and with the combinations according to the invention (=mixtures) were employed to calculate interactions using the method of Colby. When the observed efficacies of the mixtures exceed the formal sum of the values of the tests with individual applications, they also exceed the expected value according to Colby, which is calculated using the formula below (cf. S. R. Colby; in Weeds 15 (1967) pp. 20 to 22):
(§5) • A, B=activity of components A and B in percent at a dosage of a and b g of ai/ha (=gramm of active substance per hectare), respectively. • E=expected value in % at a dosage of a+b g of ai/ha.

[2] = system: Triticum aestivum (TRZAS); experiment: Post-emergence action, greenhouse pot test, visual scoring
Method: as §1, §2, §3, §4, §5
(§6) The combinations according to the invention of herbicides from group (A) with herbicides from group (B) were tested on a broad spectrum of important harmful plants (weed grasses, broad-leaved weeds/Cyperaceae) and useful plants: Triticum aestivum (TRZAS), Stellaria media (STEME), Lolium multiflorum (LOLMU), Veronica persica (VERPE), Alopecurus myosuroides (ALOMY), Matricaria inodora (MATIN), Brassica napus (BRSNW), Viola tricolor (VIOTR), Avena fatua (AVEFA), Amaranthus retroflexus (AMARE), Zea mays (ZEAMX), Pharbitis purpurea (PHBPU), Setaria viridis (SETVI), Fallopia (ex Polygonum) convolvulus (POLCO), Echinochloa crus-galli (ECHCG), Abuthilon theophrasti (ABUTH), Cyperus esculentus (CYPES), Oryza sativa (ORYSA).
(§7) Of particular interest are the results shown in the tables (Tab.) below, where the following key is used: • (1) EPPO code (former Bayer code) for the treated plant (see above) • (2) Time of scoring: DAT (days after treatment) • (3) Component A tested (identifying number) • (4) Component B tested (identifying number) • (5) Dosage component A [g of ai/ha] • (6) Dosage component B [g of ai/ha] • (7) % activity found • (8) E value (calculated according to Colby; see above) • (9) Comments: “SYNERGY”=synergistic interaction (E value<% activity found); “SAFENING”=safener action on useful plant (E value>% activity found)

[3] = system: Matricaria inodora (MATIN); experiment: Post-emergence action against weeds, greenhouse pot test, visual scoring; conditions: 21 DAT
Method: as §1, §2, §3, §4, §5, §6, §7

Avena fatua (AVEFA) = experiment: as above
Method: as §1, §2, §3, §4, §5, §6, §7

[4] = system: Alopecurus myosuroides (ALOMY); experiment: as above; conditions: 21 DAT, component B 40 g of ai/ha
Method: as §1, §2, §3, §4, §5, §6, §7

Oryza sativa (ORYSA) = experiment: Post-emergence action, greenhouse pot test, visual scoring; conditions: 21 DAT, component B 150 g of ai/ha
Method: as §1, §2, §3, §4, §5, §6, §7

Zea mays (ZEAMX) = experiment: as above
Method: as §1, §2, §3, §4, §5, §6, §7

Viola tricolor (VIOTR) = experiment: Post-emergence action against weeds, greenhouse pot test, visual scoring
Method: as §1, §2, §3, §4, §5, §6, §7

Setaria viridis (SETVI) = experiment: as above
Method: as §1, §2, §3, §4, §5, §6, §7

[5] = system: Fallopia (ex Polygonum) convolvulus (POLCO); experiment: as above; conditions: 10 DAT, component B 150 g of ai/ha
Method: as §1, §2, §3, §4, §5, §6, §7

[6] = 21 DAT, component B 120 g of ai/ha
[7] = 21 DAT, component B 40 g of ai/ha
[8] = 10 DAT, component B 50 g of ai/ha
[9] = 21 DAT, component B 50 g of ai/ha
[10] = 21 DAT, component B 150 g of ai/ha

C#CCN(C)c1c(C#N)cnn1-c1nn2c(c1Cl)CCCC2 [B1-4, 1-(3-chloro-4,5,6,7-tetrahydropyrazolo[1,5-a]pyridin-2-yl)-5-(methyl-2-propynylamino)-1H-pyrazole-4-carbonitrile]
% activity found [1, 6]: 40% | % activity found ([2]; 10 DAT, component B 40 g of ai/ha): 40% | % activity found ([2]; 10 DAT, component B 120 g of ai/ha): 60% | % activity found [2, 7]: 30% | % activity found [2, 6]: 60% | % activity found ([3]; component B 120 g of ai/ha): 80% | % activity found (Avena fatua (AVEFA); [7]): 40% | % activity found [4]: 30%

COc1nc(OC)nc(C(=O)c2cccc(F)c2N(C)S(=O)(=O)C(F)F)n1 [A-1]
% activity found ([2]; 21 DAT, component A 12 g of ai/ha, Table 16): 0%

N#Cc1cc(Br)c(O)c(Br)c1 [B1-1, 3,5-dibromo-4-hydroxybenzonitrile]
% activity found [1, 8]: 0% | % activity found [1, 9]: 0% | % activity found [1, 10]: 0% | % activity found [2, 10]: 0% | % activity found (Oryza sativa (ORYSA)): 0% | % activity found (Zea mays (ZEAMX); [8]): 0% | % activity found (Zea mays (ZEAMX); 10 DAT, component B 150 g of ai/ha): 20% | % activity found (Zea mays (ZEAMX); [9]): 0% | % activity found ([3]; component B 150 g of ai/ha): 70% | % activity found ([3]; component B 150 g of ai/ha, Table 9): 60% | % activity found (Viola tricolor (VIOTR); [8]): 20% | % activity found (Viola tricolor (VIOTR); [10]): 20% | % activity found (Setaria viridis (SETVI); [8]): 20% | % activity found (Setaria viridis (SETVI); [9]): 20% | % activity found (Setaria viridis (SETVI); [10]): 20% | % activity found (Avena fatua (AVEFA); [8]): 0% | % activity found [5]: 10%
